PMC9186362, “Design and biological evaluation of substituted 5,7-dihydro-6H-indolo[2,3-c]quinolin-6-one as novel selective Haspin inhibitors” (Journal of Enzyme Inhibition and Medicinal Chemistry, 2022)

How the values were obtained:
[1] = target: HsCdk2/Cyc A (Homo sapiens, UniProt P24941); assay: ADP-Glo kinase assay; format: biochemical, Homo sapiens (Hs); settings: mean n = 2, % of maximum activity of DMSO control, read-out: % Residual activity at 1 μM CDK2
Description: (§1) Kinase activities were determined using the ADP-Glo methodology (ADP-Glo Kinase Assay; Promega) according to the assay described by Nguyen et al.[32] except for MmCLK1. The later was assayed in the following buffer: 10 mM MgCl2, 1 mM EGTA, 1 mM DTT, 25 mM Tris-HCl pH 7.5, 50 µg/ml heparin, 0.15 mg/ml BSA, with 0.027 µg/µl of the following peptide: GRSRSRSRSRSR as substrate.

[2] = target: HsCdk5/p25 (Homo sapiens, UniProt Q00535); assay: ADP-Glo kinase assay; format: biochemical, Homo sapiens (Hs); settings: mean n = 2, % of maximum activity of DMSO control, read-out: % Residual activity at 1 μM CDK5
Sequence of HsCdk5/p25 (Q00535 whole entry): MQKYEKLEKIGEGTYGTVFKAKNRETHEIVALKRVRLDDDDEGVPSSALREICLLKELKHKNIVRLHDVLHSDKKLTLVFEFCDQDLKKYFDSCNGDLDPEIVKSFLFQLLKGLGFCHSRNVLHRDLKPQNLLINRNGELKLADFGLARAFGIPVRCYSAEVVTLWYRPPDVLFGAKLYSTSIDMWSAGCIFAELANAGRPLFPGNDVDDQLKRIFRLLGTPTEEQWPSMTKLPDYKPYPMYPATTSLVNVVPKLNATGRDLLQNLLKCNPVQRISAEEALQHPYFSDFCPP
Sequence of HsCdk5/p25 (Q15078 99-307 partner limits assumed): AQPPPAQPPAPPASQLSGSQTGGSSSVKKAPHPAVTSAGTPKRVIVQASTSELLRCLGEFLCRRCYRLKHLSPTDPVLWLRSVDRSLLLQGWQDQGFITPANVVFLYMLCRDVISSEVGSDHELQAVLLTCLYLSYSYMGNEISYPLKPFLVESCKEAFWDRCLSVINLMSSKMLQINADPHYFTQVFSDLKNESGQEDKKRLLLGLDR
Description: as §1

[3] = target: HsCdk9/Cyc E (Homo sapiens, UniProt P50750); assay: ADP-Glo kinase assay; format: biochemical, Homo sapiens (Hs); settings: mean n = 2, % of maximum activity of DMSO control, read-out: % Residual activity at 1 μM CDK9
Sequence of HsCdk9/Cyc E (P50750 whole entry): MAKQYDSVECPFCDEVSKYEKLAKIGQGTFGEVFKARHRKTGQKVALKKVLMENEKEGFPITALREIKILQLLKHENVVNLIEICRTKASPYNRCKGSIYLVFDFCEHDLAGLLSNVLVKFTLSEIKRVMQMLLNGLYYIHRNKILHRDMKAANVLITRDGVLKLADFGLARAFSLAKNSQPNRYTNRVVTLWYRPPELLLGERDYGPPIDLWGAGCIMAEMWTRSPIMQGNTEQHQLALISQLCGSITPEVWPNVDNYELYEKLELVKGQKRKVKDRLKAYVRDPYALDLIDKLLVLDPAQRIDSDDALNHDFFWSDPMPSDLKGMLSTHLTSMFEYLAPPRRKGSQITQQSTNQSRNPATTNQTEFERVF
Sequence of HsCdk9/Cyc E (O60563 whole entry partner): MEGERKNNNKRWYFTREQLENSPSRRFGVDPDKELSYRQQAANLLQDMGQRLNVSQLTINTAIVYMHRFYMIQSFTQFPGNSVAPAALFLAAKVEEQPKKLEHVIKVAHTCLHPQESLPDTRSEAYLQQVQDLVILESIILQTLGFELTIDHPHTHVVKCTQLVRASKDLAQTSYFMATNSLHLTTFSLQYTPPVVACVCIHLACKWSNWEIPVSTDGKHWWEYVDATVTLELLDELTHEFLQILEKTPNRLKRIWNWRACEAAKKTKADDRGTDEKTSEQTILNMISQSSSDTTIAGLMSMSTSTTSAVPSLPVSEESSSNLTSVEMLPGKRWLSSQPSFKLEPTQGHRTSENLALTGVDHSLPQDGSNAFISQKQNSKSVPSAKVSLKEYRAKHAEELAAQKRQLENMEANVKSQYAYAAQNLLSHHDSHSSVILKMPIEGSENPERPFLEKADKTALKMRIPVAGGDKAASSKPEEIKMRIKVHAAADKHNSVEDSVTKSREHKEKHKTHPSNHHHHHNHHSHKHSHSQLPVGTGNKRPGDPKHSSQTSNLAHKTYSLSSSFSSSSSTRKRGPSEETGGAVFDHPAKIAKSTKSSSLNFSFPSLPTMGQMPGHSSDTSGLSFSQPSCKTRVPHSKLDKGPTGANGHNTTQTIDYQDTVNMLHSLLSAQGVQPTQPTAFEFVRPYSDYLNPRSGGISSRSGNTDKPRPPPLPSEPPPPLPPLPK
Description: as §1

[4] = target: HsGSK3β (Homo sapiens, UniProt P49841); assay: ADP-Glo kinase assay; format: biochemical, Homo sapiens (Hs); settings: mean n = 2, % of maximum activity of DMSO control, read-out: % Residual activity at 1 μM GSK3β
Sequence of HsGSK3β (P49841 whole entry): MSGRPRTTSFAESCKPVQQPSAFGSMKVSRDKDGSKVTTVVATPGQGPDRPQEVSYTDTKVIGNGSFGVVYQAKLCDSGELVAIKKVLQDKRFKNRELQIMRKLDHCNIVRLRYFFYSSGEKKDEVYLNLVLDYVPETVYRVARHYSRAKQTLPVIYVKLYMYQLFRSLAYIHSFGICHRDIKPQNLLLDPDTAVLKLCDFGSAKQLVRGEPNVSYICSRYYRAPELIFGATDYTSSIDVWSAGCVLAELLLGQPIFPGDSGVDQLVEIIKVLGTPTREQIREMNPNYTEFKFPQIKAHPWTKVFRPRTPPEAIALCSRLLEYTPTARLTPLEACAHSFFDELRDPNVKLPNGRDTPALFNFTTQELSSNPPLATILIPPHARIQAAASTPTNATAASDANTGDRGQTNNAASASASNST
Description: as §1

[5] = target: T1, HsHaspin (Homo sapiens, UniProt Q8TF76); assay: ADP-Glo kinase assay; format: biochemical, Homo sapiens (Hs)
T1 sequence (Q8TF76 1-798): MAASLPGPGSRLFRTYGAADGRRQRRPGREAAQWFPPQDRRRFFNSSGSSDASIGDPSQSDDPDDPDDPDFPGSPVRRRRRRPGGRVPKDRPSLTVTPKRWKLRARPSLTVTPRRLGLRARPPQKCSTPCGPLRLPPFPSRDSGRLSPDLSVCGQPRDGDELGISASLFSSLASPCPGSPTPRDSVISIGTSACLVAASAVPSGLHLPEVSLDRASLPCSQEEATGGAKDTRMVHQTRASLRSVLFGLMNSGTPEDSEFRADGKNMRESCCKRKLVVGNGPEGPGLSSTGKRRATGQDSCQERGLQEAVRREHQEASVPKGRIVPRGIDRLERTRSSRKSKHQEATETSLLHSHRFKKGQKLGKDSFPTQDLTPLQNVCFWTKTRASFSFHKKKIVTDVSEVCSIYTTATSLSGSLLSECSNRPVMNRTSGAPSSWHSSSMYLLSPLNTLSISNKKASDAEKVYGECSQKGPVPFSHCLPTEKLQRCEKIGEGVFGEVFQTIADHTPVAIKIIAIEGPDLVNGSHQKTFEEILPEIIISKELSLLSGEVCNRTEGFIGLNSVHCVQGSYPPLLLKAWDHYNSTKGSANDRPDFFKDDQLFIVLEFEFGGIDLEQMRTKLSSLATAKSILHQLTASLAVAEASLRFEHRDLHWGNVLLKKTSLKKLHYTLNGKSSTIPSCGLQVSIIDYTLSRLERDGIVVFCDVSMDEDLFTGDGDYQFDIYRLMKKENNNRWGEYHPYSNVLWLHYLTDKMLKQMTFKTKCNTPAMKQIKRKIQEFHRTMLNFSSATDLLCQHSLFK
Description: as §1

[6] = target: HsPIM1 (Homo sapiens, UniProt P11309); assay: ADP-Glo kinase assay; format: biochemical, Homo sapiens (Hs); settings: mean n = 2, % of maximum activity of DMSO control, read-out: % Residual activity at 1 μM PIM1
Sequence of HsPIM1 (P11309 whole entry): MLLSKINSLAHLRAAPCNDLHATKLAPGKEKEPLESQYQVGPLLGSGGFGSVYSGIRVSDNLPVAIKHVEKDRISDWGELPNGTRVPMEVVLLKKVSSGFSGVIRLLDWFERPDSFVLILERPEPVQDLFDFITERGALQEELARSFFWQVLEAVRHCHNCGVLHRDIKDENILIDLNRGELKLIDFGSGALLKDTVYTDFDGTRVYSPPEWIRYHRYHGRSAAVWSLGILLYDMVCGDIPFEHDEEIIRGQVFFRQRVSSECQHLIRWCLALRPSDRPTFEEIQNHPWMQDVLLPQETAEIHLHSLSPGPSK
Description: as §1

[7] = tested on: U-2 OS, HCT116, MDA-MB231, SH-SY5Y and RPE-1 cell lines; assay: Cell viability primary screen at 25 μM; format: cell-based, human; settings: 48 h
Description: HCT116 cells were cultured in McCoy’s medium. SH-SY5Y, MDA-MB231 and U-2 OS cells were cultured in Dulbecco's modified Eagle's medium (DMEM) and hTERT RPE-1 cells in DMEM:F12 medium. All media were supplemented with 10% foetal calf serum and cells were cultured at 37 °C in a 5% CO2 humidified atmosphere.
Cell viability was then assessed using the CellTiter96 AQueous cell proliferation assay from Promega according to the manufacturer’s instructions. Each experiment was done in triplicate and EC50 were determined from the dose-response curves according to the signal given by the control (0.1% DMSO) set at 100% viability using Prism GraphPad software.

[8] = tested on: endogenous Haspin (H3T3ph) in U-2 OS cells; assay: Endogenous Haspin activity, H3T3ph immunofluorescence; format: cell-based, human; settings: 0.5 µM, 16 h, early mitotic U-2 OS cells
Description: U-2 OS cells were grown on glass coverslips, treated for 16 h than fixed with 4% paraformaldehyde in PBS, permeabilized by 0.15% Triton-X100 for 2 min, blocked for 15 min in 4% BSA in PBS and processed using standard immunofluorescence protocols. Primary antibodies included anti-phospho-Thr3 Histone H3 (1/1000 dilution, Millipore) and anti-α-tubulin (1/5000 dilution, clone B512, Sigma). Images were acquired with a Coolsnap HQ2 CCD camera (Photometrics) on a Zeiss Axio microscope (Carl Zeiss) using a 63x NA 1.40 objective. Image acquisition and processing were performed using Metamorph (Molecular Device). Quantification of signal intensity was performed using ImageJ software (NIH).

[9] = tested on: U-2 OS cells; assay: Cell cycle analysis by flow cytometry; format: cell-based, human; settings: 1 µM, 24 h
Description: After treatment with the compounds, cells were trypsinized and washed once in PBS. Cells were fixed for 1 h in ice-cold 70% ethanol, then washed once in PBS, centrifuged at 200 g and resuspended in a PBS buffer containing 100 µg/ml RNase A (Thermo Scientific) and 40 µg/ml propidium iodide (Life Technologies). DNA content was determined using a flow cytometer Attune^TM NxT (Thermofisher) and ten thousand events were collected in each run. The data were analysed using FCS Express 7 Pro software (De Novo).

[10] = target: T2, BMPR2 (Homo sapiens, UniProt Q13873); assay: LanthaScreen Binding - Eu-anti-His; settings: read-out: Percentage of inhibition
T2 construct: purchased Life Technologies (SelectScreen Whole Panel)
T2 sequence (Q13873 27-1038): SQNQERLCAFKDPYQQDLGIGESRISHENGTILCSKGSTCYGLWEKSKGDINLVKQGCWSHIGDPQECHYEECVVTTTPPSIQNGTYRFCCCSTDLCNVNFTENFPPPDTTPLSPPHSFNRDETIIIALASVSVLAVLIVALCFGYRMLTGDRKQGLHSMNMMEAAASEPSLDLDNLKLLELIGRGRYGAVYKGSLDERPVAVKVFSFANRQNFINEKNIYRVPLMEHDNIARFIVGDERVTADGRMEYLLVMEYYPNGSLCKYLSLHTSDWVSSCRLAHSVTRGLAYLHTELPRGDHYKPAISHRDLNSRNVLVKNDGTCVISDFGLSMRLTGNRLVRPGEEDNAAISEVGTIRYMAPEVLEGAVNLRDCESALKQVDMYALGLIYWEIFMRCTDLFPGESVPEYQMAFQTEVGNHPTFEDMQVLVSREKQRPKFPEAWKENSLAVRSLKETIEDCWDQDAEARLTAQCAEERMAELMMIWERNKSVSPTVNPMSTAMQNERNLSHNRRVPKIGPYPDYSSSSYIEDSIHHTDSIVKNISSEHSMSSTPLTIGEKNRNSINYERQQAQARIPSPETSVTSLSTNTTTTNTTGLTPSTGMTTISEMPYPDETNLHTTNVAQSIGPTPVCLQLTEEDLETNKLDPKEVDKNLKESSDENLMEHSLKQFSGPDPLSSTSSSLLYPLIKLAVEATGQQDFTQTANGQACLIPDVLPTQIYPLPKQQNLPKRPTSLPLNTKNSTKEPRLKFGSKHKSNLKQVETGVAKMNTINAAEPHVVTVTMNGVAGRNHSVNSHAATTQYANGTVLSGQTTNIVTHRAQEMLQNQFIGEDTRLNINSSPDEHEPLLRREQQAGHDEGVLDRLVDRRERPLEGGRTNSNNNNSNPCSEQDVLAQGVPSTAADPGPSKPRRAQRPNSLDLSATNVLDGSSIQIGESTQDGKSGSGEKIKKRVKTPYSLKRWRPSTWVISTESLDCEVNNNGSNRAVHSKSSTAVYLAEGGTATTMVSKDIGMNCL
Description: (§2) We further evaluated the selectivity profile of compound 55 on a larger panel of kinases (SelectScreen Whole Panel, Life Technologies). The inhibition profile of 55, evaluated at 1 μM, is depicted on a dendrogram on Figure 3 where kinases inhibited by a minimum of 80% are shown. A full list of the kinases tested is shown on Table S1 in supplementary information.

[11] = target: T3, MAP2K1 (MEK1) S218D S222D (Homo sapiens, UniProt Q02750, S218D/S222D); assay: LanthaScreen Binding - Eu-anti-His; settings: read-out: Percentage of inhibition
T3 construct: purchased Life Technologies (SelectScreen Whole Panel)
T3 sequence (Q02750 whole entry S218D/S222D): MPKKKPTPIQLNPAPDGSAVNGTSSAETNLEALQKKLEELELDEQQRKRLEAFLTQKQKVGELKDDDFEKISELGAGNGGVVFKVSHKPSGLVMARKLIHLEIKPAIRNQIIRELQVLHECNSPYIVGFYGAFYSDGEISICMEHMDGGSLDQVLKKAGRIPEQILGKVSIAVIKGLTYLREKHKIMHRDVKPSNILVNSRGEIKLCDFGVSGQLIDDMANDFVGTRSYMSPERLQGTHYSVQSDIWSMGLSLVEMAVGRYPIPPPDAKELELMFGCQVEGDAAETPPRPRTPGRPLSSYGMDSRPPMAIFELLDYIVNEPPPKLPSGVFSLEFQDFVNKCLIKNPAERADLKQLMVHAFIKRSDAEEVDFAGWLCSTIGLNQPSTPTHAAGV
Description: as §2

COc1ccc2[nH]c3c(=O)[nH]c4ccc(O)cc4c3c2c1 [Compound 55, 2-Hydroxy-10-methoxy-5,7-dihydro-6H-indolo[2,3-c]quinolin-6-one]
remaining activity at 1 µM [1]: 38%
remaining activity at 1 µM [2]: 53%
remaining activity at 1 µM [3]: 17%
remaining activity at 1 µM [4]: 20%
remaining activity at 1 µM ([5]; 1 μM, mean n = 2, % of maximum activity of DMSO control, read-out: % Residual activity at 1 μM Haspin): 0%
IC50 ([5]; dose-response curve, each point in duplicate, read-out: Kinase inhibition (IC50) Haspin): 2 nM
remaining activity at 1 µM [6]: 22%
Reduction of cell viability compared to the DMSO control [7]: ≥ 75%
Inhibition of intracellular Haspin (H3T3ph signal) [8]: could inhibit intracellular Haspin
% of cycling cells G2/M ([9]; DMSO control 6%): 20%
% of cycling cells S ([9]; DMSO control 44%): 44%
% of cycling cells G1 ([9]; DMSO control 50%): 36%
inhibition at 1 µM [10]: 116%
inhibition at 1 µM [11]: 98%
